# In US10925286B2, “Synergistic chalcone containing composition of a nematicide” (TELLURIS BIOTECH INDIA PRIVATE LIMITED, priority 2017, dated 2021):
# How the values were obtained:
# M. incognita eggs = assay: Egg hatching experiment, 96-well plate, 10 eggs per well, 16 days; format: in vivo, Meloidogyne incognita
# From the text: (§1) Tomato plants were inoculated with M. incognita juveniles and maintained in a growth chamber. After at least two months, the M. incognita eggs were extracted from the roots for experiments. The procedure followed for extracting M. incognita eggs is explained below.
# (§2) The root tissues were either chopped by hand using a surgical blade and a watch glass, or it was chopped up using a food processor. The chopped tissue was then placed in a bottle and washed with a 10% dilution of bleach. Under sterile conditions, the root solution was then poured through sieves (60 count sieve on top, 500 count sieve on the bottom). The crude egg collection was collected from the bottom of the 500 count sieve into 5 mL each of bleach and egg mixture in 15 mL Falcon tubes. 5 mL of 70% sucrose solution was then placed in each Falcon tube. A 1 mL layer of double distilled sterile water was then gently placed on top of the sucrose mixtures in each Falcon tube. The samples were then centrifuged for 5 minutes at 1200 rpm. The embryos that were suspended between the sucrose solution and the 1 mL water layer were collected in a total of 3 mL (top layer of 3 mL of the solution) from each Falcon tube into fresh 15 mL Falcon tubes. 10 mL of a 5% bleach solution was added and the eggs were vortexed for 10 minutes. The Falcon tubes were then centrifuged for 5 minutes at 2000 rpm. The supernatant was then removed, and the eggs were rinsed in 10 mL of sterile double distilled water and re-centrifuged for 5 minutes at 2000 rpm. This process was repeated two more times. After the last wash, 5 mL of supernatant was removed, while the remaining 5 mL of water was mixed with the eggs and placed into a 5 mL Petri dish. The eggs were then placed in an incubator at 25-27° C., and juvenile worms (J2 stage) hatched after about 10 days. The worms were kept in a 25-27° C. incubator for storage.
# The bioassay is designed to test the ability of the mixture of peptides and chalcone to prevent egg hatching (% unhatched eggs). Each test was performed in a 96-well plate with 10 eggs per well. The eggs were incubated in each treatment for 16 days. Hatched vs unhatched eggs were determined by microscopic images.
# (§3) As described earlier, equal number nematodes were incubated in various treatment solutions in a 96-well plate for 5 days and the potency of different combination of nematicides was tested by counting the number of nematodes dead or surviving on Day 5. Similarly, the effect of different combination of nematicide composition on hatching of nematode eggs was also counted.
# J2 M. incognita = assay: Bioassay for killing J2 juvenile nematodes (% mortality), 96-well plate, 5 days; format: in vivo, Meloidogyne incognita; settings: for effectiveness in killing juvenile nematodes: peptide alone (0.8 mg/ml where stated), Day 5
# From the text: as §1
# as §2, with “The eggs were then placed in an incubator at 25-27° C., and juvenile worms (J2 stage) hatched after about 10 days. The worms were kept in a 25-27° C. incubator for storage.” left out
# as §3
# nematodes = settings: cited from earlier work; for effective concentration for nematicidal activity: peptide alone; for nematicidal activity: peptide individually, 1 mg/ml
Molecule,"hatched eggs by Day 16 (M. incognita eggs; chalcone alone, 10^−4-10^−5 M)","hatched eggs by Day 16 (M. incognita eggs; peptide alone, 0.8 mg/ml)","death of juvenile nematodes on Day 5 (J2 M. incognita; peptide alone, 0.8 mg/ml)",effective concentration for nematicidal activity (nematodes),nematicidal activity (nematodes),effectiveness in killing juvenile nematodes (J2 M. incognita)
"O=C(/C=C/c1ccccc1)c1ccc(Cl)cc1Cl [chalcone 17, (2E)-1-(2,4-Dichlorophenyl)-3-phenyl-2-propen-1-one]",~50%,–,–,–,–,–
"CCOc1ccc(C(=O)/C=C/c2ccccc2)cc1 [chalcone 25, (2E)-1-(4-Ethoxyphenyl)-3-phenyl-2-propen-1-one]",~50%,–,–,–,–,–
"Peptide 2: 15 amino acids DLLRPVVIAPQFSRQ (99-113 amino acid stretch of CED-4 protein, SEQ ID NO. 2) (Caenorhabditis elegans)",–,around 30%,60-80%,about 1 mg/ml,100%,–
"Peptide 3: 19 amino acids RQMLDRKLLLGNVPKQMTC (112-130 amino acid stretch of CED-4 protein, SEQ ID NO. 3) (Caenorhabditis elegans)",–,around 10%,–,about 1 mg/ml,100%,less effective
"Peptide 12: 12 amino acids FPKFMQLHQKFY (529-540 amino acid stretch of CED-4 protein, SEQ ID NO. 4) (Caenorhabditis elegans)",–,around 20%,–,about 1 mg/ml,100%,highly effective
